Data taken from patent publication US11214803B2, “Modulators of YAP1 expression” (Ionis Pharmaceuticals, Inc., priority 2019, dated 2022).

What was measured:
Type in all cases: in vivo, human
ERK1/2 = experiment: Measurement of ERK activation (pERK/ERK) in SNU449 xenograft model with sorafenib (second Example 30); settings: SNU449 xenograft tumors, pERK/ERK relative to PBS control, oligonucleotide 50 mg/kg, sorafenib 30 mg/kg orally
Method: (§1) Five million SNU449 cells in 30% matrigel were implanted subcutaneously into the fatpads of female NOD.Cg-Prkdcscid II2rgtmlWjl/SzJ mice (from Jackson Laboratory) at 4-6 weeks of age. 43 days post implantation (when tumors had reached approximately 100 mm^3 in size), groups of eight mice each were administered with 50 mg/kg modified oligonucleotide daily for 10 days (loading dose), following which they were administered with 50 mg/kg modified oligonucleotide four times a week for one week, following which they were dosed with 50 mg/kg modified oligonucleotide thrice weekly until the end of the study.
Protein analysis was carried out using standard procedures. […] ERK protein levels were compared to internal control GAPDH. […] The secondary antibody used was donkey anti-rabbit NA934, GE Healthcare. pERK/ERK levels were calculated relative to PBS control to determine % activation of ERK1/2.

SNU449 xenograft tumor = experiment: Tumor volume in SNU449 xenograft tumor model, alone and in combination with sorafenib (second Example 30); settings: SNU449 xenograft, oligonucleotide 50 mg/kg, sorafenib 30 mg/kg orally
Method: Modified oligonucleotides described in the studies above were tested in a hepatocellular carcinoma SNU449 xenograft tumor model. […] A control oligonucleotide 792169, described herein above, was also tested.
as §1, with “study. […] Animals were sacrificed, and tumors were collected on day 119 post implantation.” for “study.”
Tumor volumes were also measured at the indicated days in the table below.

Yap1 mRNA = Yap1 mRNA levels in SNU449 xenograft tumors, alone and in combination with sorafenib (second Example 30); settings: SNU449 xenograft mice, oligonucleotide 50 mg/kg, sorafenib 30 mg/kg orally, tumors collected day 119 post implantation, relative to PBS
Method: Modified oligonucleotides described in the studies above were tested in a hepatocellular carcinoma SNU449 xenograft tumor model. In addition to testing the modified oligonucleotide by itself, combination therapy with sorafenib was also tested. A control oligonucleotide 792169, described herein above, was also tested.
as §1, with “study. […] Animals were sacrificed, and tumors were collected on day 119 post implantation.” for “study.”
Yap1 mRNA knockdown in tumors was measured by RT-qPCR as previously described using the Human Yap1 primer-probe set RTS4814. Yap1 mRNA levels were normalized to actin-beta content, as measured by primer probe set RTS5002. Results are presented in the tables below as percent control of the amount of Yap1 mRNA relative to PBS treated animals (% control).

## CNC(=O)c1cc(Oc2ccc(NC(=O)Nc3ccc(Cl)c(C(F)(F)F)c3)cc2)ccn1 [sorafenib]
ERK1/2
  % activation of ERK1/2: 142%
SNU449 xenograft tumor; day 43 post tumor implantation
  Average Tumor Volume: 112 mm^3
SNU449 xenograft tumor; day 46 post tumor implantation
  Average Tumor Volume: 145 mm^3
SNU449 xenograft tumor; day 50 post tumor implantation
  Average Tumor Volume: 159 mm^3
SNU449 xenograft tumor; day 53 post tumor implantation
  Average Tumor Volume: 173 mm^3
SNU449 xenograft tumor; day 57 post tumor implantation
  Average Tumor Volume: 200 mm^3
SNU449 xenograft tumor; day 67 post tumor implantation
  Average Tumor Volume: 277 mm^3
SNU449 xenograft tumor; day 71 post tumor implantation
  Average Tumor Volume: 249 mm^3
SNU449 xenograft tumor; day 75 post tumor implantation
  Average Tumor Volume: 283 mm^3
SNU449 xenograft tumor; day 78 post tumor implantation
  Average Tumor Volume: 322 mm^3
SNU449 xenograft tumor; day 81 post tumor implantation
  Average Tumor Volume: 391 mm^3
SNU449 xenograft tumor; day 85 post tumor implantation
  Average Tumor Volume: 416 mm^3
SNU449 xenograft tumor; day 88 post tumor implantation
  Average Tumor Volume: 451 mm^3
SNU449 xenograft tumor; day 92 post tumor implantation
  Average Tumor Volume: 508 mm^3
SNU449 xenograft tumor; day 94 post tumor implantation
  Average Tumor Volume: 581 mm^3
SNU449 xenograft tumor; day 98 post tumor implantation
  Average Tumor Volume: 625 mm^3
SNU449 xenograft tumor; day 101 post tumor implantation
  Average Tumor Volume: 685 mm^3
SNU449 xenograft tumor; day 105 post tumor implantation
  Average Tumor Volume: 671 mm^3
SNU449 xenograft tumor; day 108 post tumor implantation
  Average Tumor Volume: 663 mm^3
SNU449 xenograft tumor; day 119 post tumor implantation
  Average Tumor Volume: 747 mm^3
Yap1 mRNA
  Yap1 mRNA levels in tumors: 103 % control
